Target: FGFR2 (Homo sapiens, UniProt P21802)
Test: FGFR wild type enzyme assay (HTRF KinEASE-TK), FGFR2
Conditions: Enz FGFR2 (nM), FGFR2 wild type enzyme assay
Experimental: Activity against FGFR wild type and mutant enzymes were determined in biochemical assays using purified intracellular domains of the respective isoforms using HTRF KinEASE-TK assay technology from CisBio, now PerkinElmer. (Catalogue number 62TK0PEC). Briefly test compounds were tested in 11 point 1:3 serial dilutions, typical final concentration ranges from 10,000 nM to 0.17 nM. Test compounds were dissolved in DMSO and added to assay plates using acoustic transfer. Enzyme was pre-incubated with test compound for 30 minutes and the assay was initiated by addition of ATP and TK-peptide substrate. After 60 minutes at room temperature the reaction was quenched with detection reagent and incubated for an additional 60 minutes at room temperature. The plates were read using a multimode reader and the emission ratio of 665 nm to 615 nm was determined. This ratio was converted to percent of control (POC). [1-(high control-sample signal)/(high control-low control)]*100. Wells without compound were used to determine high control values and wells without enzyme were used to determine low control values. The POC values were fit using a four-parameter logistic model and the value where the fit curve was equal to 50 POC was reported as the IC50 using the Signals Vitro Vivo software package (PerkinElmer). Final assay conditions were: 50 mM HEPES pH7.5, 10 mM MgCl2, 1 mM EDTA, 0.01% Brij-35, 2 mM MnCl2, 1 mM DTT, and 0.5 uM TK-peptide.

FGFR2, sequence (P21802 399-821 limits assumed): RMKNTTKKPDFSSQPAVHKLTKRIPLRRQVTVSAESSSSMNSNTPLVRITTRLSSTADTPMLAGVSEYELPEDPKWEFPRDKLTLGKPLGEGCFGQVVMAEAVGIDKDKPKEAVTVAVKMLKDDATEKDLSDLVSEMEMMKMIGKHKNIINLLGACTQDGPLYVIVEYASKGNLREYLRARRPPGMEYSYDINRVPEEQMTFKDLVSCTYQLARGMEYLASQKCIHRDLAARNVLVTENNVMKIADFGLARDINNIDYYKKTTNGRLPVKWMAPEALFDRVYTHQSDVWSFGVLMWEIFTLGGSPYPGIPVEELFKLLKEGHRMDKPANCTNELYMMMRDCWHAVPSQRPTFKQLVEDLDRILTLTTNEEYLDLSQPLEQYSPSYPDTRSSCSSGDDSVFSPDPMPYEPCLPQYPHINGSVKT

Structure (SMILES) | IC50
CC(=O)N1CC[C@H](n2cc(-c3cc(Sc4ncccc4F)c4c(C#N)cnn4c3)cn2)C1 [Example 450, (S)-6-(1-(1-acetylpyrrolidin-3-yl)-1H-pyrazol-4-yl)-4-((3-fluoropyridin-2-yl)thio)pyrazolo[1,5-a]pyridine-3-carbonitrile] | 1 nM
N#Cc1cnn2cc(-c3cnn([C@H]4CCN(C(=O)CO)C4)c3)cc(Sc3ncccc3F)c12 [Example 451, (S)-4-((3-fluoropyridin-2-yl)thio)-6-(1-(1-(2-hydroxyacetyl)pyrrolidin-3-yl)-1H-pyrazol-4-yl)pyrazolo[1,5-a]pyridine-3-carbonitrile] | 1 nM
CC(C)n1cc(-c2cc(Sc3ccccc3C#N)c3c(C#N)cnn3c2)cn1 [Example 452, 4-((2-cyanophenyl)thio)-6-(1-isopropyl-1H-pyrazol-4-yl)pyrazolo[1,5-a]pyridine-3-carbonitrile] | 0.6 nM
CC(=O)N1CC[C@H](n2cc(-c3cc(Sc4ccccc4C#N)c4c(C#N)cnn4c3)cn2)C1 [Example 453, (S)-6-(1-(1-acetylpyrrolidin-3-yl)-1H-pyrazol-4-yl)-4-((2-cyanophenyl)thio)pyrazolo [1,5-a]pyridine-3-carbonitrile] | 0.4 nM
CC(=O)N1CCC(n2nc(C)c(-c3cc(Sc4ncccc4F)c4c(C#N)cnn4c3)c2F)CC1 [Example 454, 6-(1-(1-acetylpiperidin-4-yl)-5-fluoro-3-methyl-1H-pyrazol-4-yl)-4-((3-fluoropyridin-2-yl)thio)pyrazolo[1,5-a]pyridine-3-carbonitrile] | 12 nM
Cc1noc(N2CCC[C@H](n3ncc(-c4cc(Sc5ccc(F)cc5C#N)c5c(C#N)cnn5c4)c3C)C2)n1 [Example 455, 4-(2-cyano-4-fluoro-phenyl)sulfanyl-6-[5-methyl-1-[(3S)-1-(3-methyl-1,2,4-oxadiazol-5-yl)-3-piperidyl]pyrazol-4-yl]pyrazolo[1,5-a]pyridine-3-carbonitrile] | 2 nM
Cc1c(-c2cc(Sc3ccc(F)cc3C#N)c3c(C#N)cnn3c2)cnn1[C@H]1CCCN(c2ccccn2)C1 [Example 456, (S)-4-((2-cyano-4-fluorophenyl)thio)-6-(5-methyl-1-(1-(pyridin-2-yl)piperidin-3-yl)-1H-pyrazol-4-yl)pyrazolo[1,5-a]pyridine-3-carbonitrile] | 8 nM
N#Cc1cnn2cc(-c3cnn([C@H]4CCCNC4)n3)cc(Sc3ncccc3F)c12 [Example 457, 4-[(3-fluoro-2-pyridyl)sulfanyl]-6-[2-[(3S)-3-piperidyl]triazol-4-yl]pyrazolo[1,5-a]pyridine-3-carbonitrile] | 13 nM
CC(=O)N1CC[C@H](n2cc(-c3cc(Sc4ccccc4C#N)c4c(C#N)cnn4c3)cn2)[C@@H](O)C1 [Example 458, 6-(1-((3S,4S)-1-acetyl-3-hydroxypiperidin-4-yl)-1H-pyrazol-4-yl)-4-((2-cyanophenyl)thio)pyrazolo [1,5-a]pyridine-3-carbonitrile] | 1 nM
CC(=O)N1CC[C@@H](n2cc(-c3cc(Sc4ccccc4C#N)c4c(C#N)cnn4c3)cn2)[C@H](O)C1 [Example 459, 6-(1-((3R,4R)-1-acetyl-3-hydroxypiperidin-4-yl)-1H-pyrazol-4-yl)-4-((2-cyanophenyl)thio)pyrazolo [1,5-a]pyridine-3-carbonitrile] | 0.4 nM
N#Cc1cc(F)ccc1Sc1cc(-c2cn([C@H]3CCCNC3)nn2)cn2ncc(C#N)c12 [Example 460, (S)-4-((2-cyano-4-fluorophenyl)thio)-6-(1-(piperidin-3-yl)-1H-1,2,3-triazol-4-yl)pyrazolo[1,5-a]pyridine-3-carbonitrile] | 6 nM
N#Cc1ccccc1Sc1cc(-c2cn([C@H]3CCCNC3)nn2)cn2ncc(C#N)c12 [Example 461, (S)-4-((2-cyanophenyl)thio)-6-(1-(piperidin-3-yl)-1H-1,2,3-triazol-4-yl)pyrazolo[1,5-a]pyridine-3-carbonitrile] | 4 nM
N#Cc1cc(F)ccc1Sc1cc(-c2cnn([C@H]3CCCNC3)n2)cn2ncc(C#N)c12 [Example 462, (S)-4-((2-cyano-4-fluorophenyl)thio)-6-(2-(piperidin-3-yl)-2H-1,2,3-triazol-4-yl)pyrazolo[1,5-a]pyridine-3-carbonitrile] | 19 nM
N#Cc1ccccc1Sc1cc(-c2cnn([C@H]3CCCNC3)n2)cn2ncc(C#N)c12 [Example 463, (S)-4-((2-cyanophenyl)thio)-6-(2-(piperidin-3-yl)-2H-1,2,3-triazol-4-yl)pyrazolo[1,5-a]pyridine-3-carbonitrile] | 6 nM
N#Cc1ccccc1Sc1cc(-c2cn([C@H]3CCNC3)nn2)cn2ncc(C#N)c12 [Example 464, (S)-4-((2-cyanophenyl)thio)-6-(1-(pyrrolidin-3-yl)-1H-1,2,3-triazol-4-yl)pyrazolo[1,5-a]pyridine-3-carbonitrile] | 5 nM
N#Cc1cnn2cc(-c3cn([C@H]4CCNC4)nn3)cc(Sc3ncccc3F)c12 [Example 465, (S)-4-((3-fluoropyridin-2-yl)thio)-6-(1-(pyrrolidin-3-yl)-1H-1,2,3-triazol-4-yl)pyrazolo[1,5-a]pyridine-3-carbonitrile] | 11 nM

Structure (SMILES) | IC50
Cn1cc(-c2cc(Sc3ncccc3F)c3c(C#N)cnn3c2)cn1 [Example 466, 4-((3-fluoropyridin-2-yl)thio)-6-(1-methyl-1H-pyrazol-4-yl)pyrazolo[1,5-a]pyridine-3-carbonitrile] | 6 nM
CN1CCN(c2ccc(-c3cc(Sc4ncccc4F)c4c(C#N)cnn4c3)cc2)CC1 [Example 467, 4-((3-fluoropyridin-2-yl)thio)-6-(4-(4-methylpiperazin-1-yl)phenyl)pyrazolo[1,5-a]pyridine-3-carbonitrile] | 0.4 nM
Cn1cc(-c2cc(Sc3ccccc3C#N)c3c(C#N)cnn3c2)cn1 [Example 468, 4-((2-cyanophenyl)thio)-6-(1-methyl-1H-pyrazol-4-yl)pyrazolo[1,5-a]pyridine-3-carbonitrile] | 1 nM
CN1CCN(c2ccc(-c3cc(Sc4ccccc4C#N)c4c(C#N)cnn4c3)cc2)CC1 [Example 469, 4-((2-cyanophenyl)thio)-6-(4-(4-methylpiperazin-1-yl)phenyl)pyrazolo[1,5-a]pyridin-3-carbonitrile] | 0.2 nM
Cc1c(-c2cc(Sc3ccc(F)cc3C#N)c3c(C#N)cnn3c2)cnn1[C@H]1CC[C@](O)(CO)CC1 [Example 470, 4-((2-cyano-4-fluorophenyl)thio)-6-(1-((1s,4s)-4-hydroxy-4-(hydroxymethyl)cyclohex-yl)-5-methyl-1H-pyrazol-4-yl)pyrazolo[1,5-a]pyridine-3-carbonitrile] | 1 nM
CC1(C)C[C@H](n2cc(-c3cc(Sc4ncccc4F)c4c(C#N)cnn4c3)cn2)CN1 [Example 471, (S)-6-(1-(5,5-dimethylpyrrolidin-3-yl)-1H-pyrazol-4-yl)-4-((3-fluoropyridin-2-yl)thio)pyrazolo[1,5-a]pyridine-3-carbonitrile] | 1 nM
CC1(C)C[C@H](n2cc(-c3cc(Sc4ccccc4C#N)c4c(C#N)cnn4c3)cn2)CN1 [Example 472, (S)-4-((2-cyanophenyl)thio)-6-(1-(5,5-dimethylpyrrolidin-3-yl)-1H-pyrazol-4-yl)pyrazolo[1,5-a]pyridine-3-carbonitrile] | 0.3 nM
CC1(C)C[C@@H](n2cc(-c3cc(Sc4ncccc4F)c4c(C#N)cnn4c3)cn2)CN1 [Example 473, (R)-6-(1-(5,5-dimethylpyrrolidin-3-yl)-1H-pyrazol-4-yl)-4-((3-fluoropyridin-2-yl)thio)pyrazolo[1,5-a]pyridine-3-carbonitrile] | 1 nM
CC1(C)C[C@@H](n2cc(-c3cc(Sc4ccccc4C#N)c4c(C#N)cnn4c3)cn2)CN1 [Example 474, (R)-4-((2-cyanophenyl)thio)-6-(1-(5,5-dimethylpyrrolidin-3-yl)-1H-pyrazol-4-yl)pyrazolo[1,5-a]pyridine-3-carbonitrile] | 0.2 nM
C[C@H](O)C(=O)N1CCC(n2cc(-c3cc(Sc4ccc(F)cc4C#N)c4c(C#N)cnn4c3)cn2)CC1 [Example 475, (S)-4-((2-cyano-4-fluorophenyl)thio)-6-(1-(1-(2-hydroxypropanoyl)piperidin-4-yl)-1H-pyrazol-4-yl)pyrazolo[1,5-a]pyridine-3-carbonitrile] | 1 nM
N#Cc1cnn2cc(-c3cnn([C@H]4CCN(C5CC(O)C5)C4)c3)cc(Sc3ncccc3F)c12 (stereo partly drawn) [Example 476, (S)-4-((3-fluoropyridin-2-yl)thio)-6-(1-(1-(3-hydroxycyclobutyl)pyrroli-din-3-yl)-1H-pyrazol-4-yl)pyrazolo[1,5-a]pyridine-3-carbonitrile] | 1 nM
CC(C)(O)CN1CC[C@H](n2cc(-c3cc(Sc4ncccc4F)c4c(C#N)cnn4c3)cn2)C1 [Example 477, (S)-4-((3-fluoropyridin-2-yl)thio)-6-(1-(1-(2-hydroxy-2-methylpropyl)pyrrolidin-3-yl)-1H-pyrazol-4-y)pyrazolo[1,5-a]pyridine-3-carbonitrile] | 1 nM
COC(=O)N1CCC(n2cc(-c3cc(Sc4ncccc4F)c4c(C#N)cnn4c3)cn2)CC1 [Example 478, methyl 4-(4-(3-cyano-4-((3-fluoropyridin-2-yl)thio)pyrazolo[1,5-a]pyridin-6-yl)-1H-pyrazol-1-yl)piperidine-1-carboxylate] | 1 nM
COC(=O)N1CCC[C@H](n2cc(-c3cc(Sc4ncccc4F)c4c(C#N)cnn4c3)cn2)C1 [Example 479, methyl (S)-3-(4-(3-cyano-4-((3-fluoropyridin-2-yl)thio)pyrazolo[1,5-a]pyridin-6-yl)-1H-pyrazol-1-yl)piperidine-1-carboxylate] | 1 nM
COC(=O)N1CC[C@H](n2cc(-c3cc(Sc4ncccc4F)c4c(C#N)cnn4c3)cn2)C1 [Example 480, methyl (S)-3-(4-(3-cyano-4-((3-fluoropyridin-2-yl)thio)pyrazolo[1,5-a]pyridin-6-yl)-1H-pyrazol-1-yl)pyrrolidine-1-carboxylate] | 1 nM
COC(=O)N1CCC(n2cc(-c3cc(Sc4ccccc4C#N)c4c(C#N)cnn4c3)cn2)CC1 [Example 481, methyl 4-(4-(3-cyano-4-((2-cyanophenyl)thio)pyrazolo [1,5-a]pyridin-6-yl)-1H-pyrazol-1-yl)piperidine-1-carboxylate] | 4 nM

From US20240270741A1 (Cogent Biosciences, Inc., priority 2023, published 2024)
